Experiments:
[1] = test system: peripheral blood mononuclear cells (PBMC), T cells; assay: ELISpot assay, IL-5 release (SFC) after stimulation with a-synuclein epitope pools; type: cell-based, human
Protocol: (§1) Blood from age matched controls and PD patients were obtained and mononuclear cells were isolated by gradient centrifugation.
(§2) Release of the cytokines gamma-interferon, which measures activation of CD4+ and/or CD8+ T cells, and the interleukin, IL-5, which measures activation of CD4+ T cells was measured by ELISpot assay. […] After 22 hours of stimulation at 37 C, the cells were removed and release of cytokines was measured by colorimetric detection of spot-forming cells (SFC). Confirmed release of cytokine is determined by the presence of a minimum of 20 SFC per million cells.
(§3) The binding algorithms in SubAim 1 predict how well the peptides would bind to MHC if present, but not if they are present in patients. To determine this, the presence of T cell response against the candidate antigens by patient blood-derived peripheral blood mononuclear cells (PBMC) is assessed by ELISPOT assays upon stimulation with the peptides. This assay detects and quantifies cytokine release (in this case, IFNγ and IL-5) from specific activated T cells.
(§4) Data were obtained from blood samples (25 ml) from 44 PD patients and 24 age-matched controls. The experiments were conducted blindly. PBMCs from these samples were isolated and exposed to pools comprising the 122 candidate class I and class II antigens and phosphorylated S129 epitopes generated in Subaim 1. For the PBMCs responsive to the pooled peptides, the response was then deconvoluted to identify individual epitopes.
(§5) PMBC fractions are recovered by standard methods with Ficoll gradient and T cells expansion (Oseroff et al., 2010). The methods for the analysis of T cell reactions and measurement of cytokines production using the enzyme-linked immunosorbent spot (ELISPOT) assay are published in analogous experiments to discover antigens in multiple sclerosis (Lolli et al., 2013) and in hay fever allergens (Oseroff et al., 2010). T cell responses are determined by measuring IFNγ and IL-5 release by ELISPOT. Statistical analysis of differences between populations is expected to be non-parametric and analyzed with the U-Mann-Whitney test. If there were a normal distribution of response, which is a priori unlikely as some patients have no T cell response, with an SD=1, 8 patients per group would be required to provide a p>90% that the study detect a >2 fold difference at a two-sided 0.05 significance level.

[2] = test system: peripheral blood mononuclear cells (PBMC), T cells; assay: ELISpot assay, gamma-interferon release (SFC) after stimulation with a-synuclein epitope pools; type: cell-based, human; settings: for Pool +: IFNg, Pool Stimulated, number of donors with a positive response, Donors tested 1
Protocol: as §1, §2, §3, §4, §5

[3] = Patients Summary, PD patients, of donors tested (peptide)
[4] = Patients Summary, PD patients, single peptide
[5] = number of donors positive to the single peptide, second 'Pool Stimulated' section (from r296), 12 donors tested
[6] = peptide + / donors tested (peptide), second 'Pool Stimulated' section (from r296), 12 donors tested
[7] = single peptide, second 'Pool Stimulated' section (from r296), 12 donors tested
[8] = Patients Summary, Phospho pool peptides
[9] = Patients Summary, Phospho pool peptides, 10 donors tested
[10] = peptides of pool 'Poshpho', 8 donors tested
[11] = peptides of pool 'Poshpho', 8 donors tested, number of donors positive

Substance	IL-g Peptide + (donors positive to the peptide) [1, 3]	IL-g Response Frequency [1, 4] [%]	IL-g Total SFC [1, 4] [SFC]	IL-g Peptide + [1, 5]	IL-g Response Frequency [1, 6] [%]	IL-g Total SFC [1, 7] [SFC]	Pool + [2]	IFNg Peptide + (donors positive to the peptide) [2, 3]	IFNg Response Frequency [2, 4] [%]	IFNg Total SFC [2, 4] [SFC]	IFNg Peptide + [2, 5]	IFNg Response Frequency [2, 6] [%]	IFNg Total SFC [2, 7] [SFC]	IFNg Avg SFC [2, 4] [SFC]	also measured
3521.0086 (ATVAEKTKEQVTNVG; listed as Homo sapiens)	0	0	0	0	0	0	1	0	0	0	0	0	0		
3521.0035 (SIAAATGFVK; listed as Homo sapiens)	1	25	1898	1	50	536	1	1	25	1946	0	0	0	1946	IL-g Avg SFC [1, 4]: 1898 SFC; IL-g Avg SFC [1, 7]: 536 SFC
3521.0047 (IAAATGFVKK; listed as Homo sapiens)	0	0	0	0	0	0	0	0	0	0	0	0	0		
3521.0077 (KTKEGVLYVGSKTKK; listed as Homo sapiens)	6	75	3565	2	100	1814	1	5	63	3505	2	100	3020	701	IL-g Avg SFC [1, 4]: 595 SFC; IL-g Avg SFC [1, 7]: 3907 SFC; IFNg Avg SFC [2, 7]: 1510 SFC
3521.0033 (VLYVGSKTKK; listed as Homo sapiens)	3	50	528				1	5	83	1626				325	IL-g Avg SFC [1, 4]: 176 SFC
3521.0065 (FVKKDQLGK; listed as Homo sapiens)	0	0	0	0	0	0	0	0	0	0	0	0	0		
3521.0007 (AAATGFVKK; listed as Homo sapiens)	0	0	0	0	0	0	0	0	0	0	0	0	0		
3521.0003 (SIAAATGFV; listed as Homo sapiens)	0	0	0	0	0	0	0	0	0	0	1	50	33.3		IFNg Avg SFC [2, 7]: 33.3 SFC
3521.0075 (KQGVAEAPGKTKEGV; listed as Homo sapiens)	1	13	58	1	50	147	1	3	38	209	0	0	0	70	IL-g Avg SFC [1, 4]: 58 SFC; IL-g Avg SFC [1, 7]: 147 SFC
3521.0038 (EMPSEEGYQD; listed as Homo sapiens)	0	0	0				0	0	0	0					IL-g Avg SFC [1, 8]: 620 SFC; IL-g Response Frequency [1, 8]: 10%; IL-g Total SFC [1, 8]: 620 SFC; IL-g Peptide + (donors positive to the peptide) [1, 9]: 1; IL-g Avg SFC [1, 10]: 33 SFC; IL-g Response Frequency [1, 10]: 13%; IL-g Total SFC [1, 10]: 33 SFC; IL-g Peptide + [1, 11]: 1; Pool + ([2]; pool 'Phospho' (phosphorylated peptides)): 1; IFNg Avg SFC [2, 8]: 502 SFC; IFNg Response Frequency [2, 8]: 30%; IFNg Total SFC [2, 8]: 1507 SFC; IFNg Peptide + (donors positive to the peptide) [2, 9]: 3; IFNg Avg SFC [2, 10]: 40 SFC; IFNg Response Frequency [2, 10]: 13%; IFNg Total SFC [2, 10]: 40 SFC; IFNg Peptide + [2, 11]: 1
3521.0005 (AVVTGVTAV; listed as Homo sapiens)	0	0	0	0	0	0	0	0	0	0	0	0	0		
3521.0045 (KTKKGVVHGV; listed as Homo sapiens)	0	0	0					1	17	133				133	
3521.0084 (YVGSKTKEGVVHGVA; listed as Homo sapiens)	0	0	0				0	0	0	0					
3521.0067 (KTKEGVVHG; listed as Homo sapiens)	0	0	0				0	0	0	0					
